Key:
[1] = target: Tyrosine-protein kinase SYK (Homo sapiens) (UniProt P43405); test: Inhibition of SYK
[2] = target: 3-phosphoinositide-dependent protein kinase 1 (Homo sapiens) (UniProt O15530); test: Inhibition of PDK1
[3] = target: Mitogen-activated protein kinase 10 (Homo sapiens, UniProt P53779); test: Inhibition of JNK3 by spectrophotometric coupled enzyme assay
Chain of Mitogen-activated protein kinase 10 (P53779 whole entry): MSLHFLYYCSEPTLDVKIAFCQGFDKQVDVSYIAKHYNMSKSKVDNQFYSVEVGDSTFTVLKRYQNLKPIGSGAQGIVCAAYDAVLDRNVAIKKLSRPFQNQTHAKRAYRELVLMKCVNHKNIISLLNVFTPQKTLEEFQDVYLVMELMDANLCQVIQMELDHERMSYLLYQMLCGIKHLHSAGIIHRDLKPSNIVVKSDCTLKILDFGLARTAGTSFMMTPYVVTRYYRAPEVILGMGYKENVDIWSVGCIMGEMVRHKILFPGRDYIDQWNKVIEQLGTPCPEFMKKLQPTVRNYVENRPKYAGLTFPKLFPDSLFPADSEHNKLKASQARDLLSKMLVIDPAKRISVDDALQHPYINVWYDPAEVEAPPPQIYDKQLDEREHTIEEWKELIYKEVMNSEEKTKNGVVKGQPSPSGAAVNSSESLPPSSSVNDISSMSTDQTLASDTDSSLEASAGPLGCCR

SMILES | Ki [1] | Ki [2] | Ki [3]
Cc1ccc2c(c1)N(Cc1cc(F)cc3c1OCOC3)C(=O)C2N=O (configuration not stated) [1-((6-fluoro-4H-benzo[d][1,3]dioxin-8-yl)methyl)-3-(hydroxyimino)-6-methylindolin-2-one] | > 30 µM | > 30 µM | –
Cc1ccc2c(c1)C(N=O)C(=O)N2Cc1ccccc1 (configuration not stated) [1-benzyl-3-(hydroxyimino)-5-methylindolin-2-one] | – | – | > 10 µM
O=NC1C(=O)N(Cc2ccccc2)c2ccccc21 (configuration not stated) [1-benzyl-3-(hydroxyimino)indolin-2-one] | – | – | > 10 µM
O=NC1C(=O)N(Cc2ccccc2)c2ccc(F)cc21 (configuration not stated) [1-benzyl-5-fluoro-3-(hydroxyimino)indolin-2-one] | – | – | > 10 µM
O=NC1C(=O)N(Cc2ccccc2[N+](=O)[O-])c2ccccc21 (configuration not stated) [3-(hydroxyimino)-1-(2-nitrobenzyl)indolin-2-one] | – | – | > 10 µM
Cc1cccc(CN2C(=O)C(N=O)c3cc(C)ccc32)c1 (configuration not stated) [3-(hydroxyimino)-5-methyl-1-(3-methylbenzyl)indolin-2-one] | – | – | > 10 µM

Reference: BindingDB's records for doi:10.1016/j.bmcl.2009.03.043 (Vertex Pharmaceuticals, 2009)
